The text below walks through data of article PMC10818308, “Phytochemicals from Pterocarpus angolensis DC and Their Cytotoxic Activities against Breast Cancer Cells” (Plants, 2024).

Converted amounts (≈) assume the structure as drawn.

The test system of series [1] is triple-negative breast cancer (HCC70) cell line. The experiment in a line: Resazurin cytotoxicity assay, HCC70. It counts as cell-based. The settings on record: for IC50 (µM) HCC70 / IC50: HCC70 cells, 96 h treatment, resazurin; for SI (Selectivity Index), IC50 of MCF-12A/IC50 of HCC70: HCC70 versus MCF-12A; for IC50: Homo sapiens. The method, then:
(§1) The cytotoxicity of the pure compounds was evaluated using the in vitro cell culture against triple-negative breast cancer (HCC70) cell lines, hormone receptor-positive breast cancer (MCF-7), and non-tumorigenic epithelial cell lines derived from breast tissue (MCF-12A). A compound’s ability to inhibit a particular biochemical function is determined by its half-maximum inhibitory concentration (IC50). Etoposide was used as the positive control.
(§2) The cell viability after treatment with the isolated pure compounds of P. angolensis was analyzed using the resazurin assay in commercially available established cell lines purchased from the American Type Culture Collection. Triple-negative breast cancer cell line (HCC70) (estrogen receptor (ER)^−, progesterone receptor (PR), (HER-2)^−, (ATCC-CRL-2315)), hormone receptor-positive (ER^+, PR ^+, HER-2) breast cancer cell line (MCF-7) (ATCC: HTB-22), and non-tumorigenic breast epithelial cell line (MCF-12A) (ATCC: CRL-10782, a kind gift from Anna-Mart Engelbrecht, Stellenbosch University, Stellenbosch, South Africa) were maintained in culture in a 9% CO2 incubator at 37 °C. The HCC70 cell line was cultured in RPMI-1640 media (Gibco, Trenton, MI, USA) supplemented with 10% (v/v) fetal bovine serum (FBS) (BioWest, Nuaillé, France), 1% (v/v) 100 U/mL penicillin, streptomycin, and amphotericin (PSA) (Lonza, Basel, Switzerland), 1% (v/v) GlutaMAX^TM (Gibco) and 0.25% (v/v) sodium bicarbonate (Gibco). The MCF-7 cell line cell was cultured in Dulbecco’s Modified Eagles Medium (DMEM) (Gibco) supplemented with 10% (v/v) FBS, 1% (v/v) PSA and 1% (v/v) GlutaMAX^TM. The MCF-12A cell line was cultured in DMEM/Ham’s F-12 (BioWest) supplemented with 10% (v/v) FBS, 1% (v/v) PSA, 20 ng/mL human epidermal growth factor (Sigma, St. Louis, MO, USA), 100 ng/mL cholera toxin (Sigma), 500 ng/mL hydrocortisone (Abcam, Cambridge, UK) and 10 μg/mL insulin (Novo Nordisk, Bagsværd, Denmark). All cells were seeded into 96-well plates at a density of 5000 cells per well and allowed to adhere for the night in a 9% CO2 incubator at 37 °C. The cells were subsequently treated for 96 h at 37 °C in an incubator with 9 percent CO2 with the isolated compounds with […] at concentrations ranging from 15.63 to 500.00 μM or with 0.2% (v/v) DMSO (Sigma) as a vehicle control. Thereafter, 0.54 nM of resazurin (Glentham Life Sciences, Corsham, UK) solution was added, and cells were then cultured for two to four hours at 37 °C in an incubator with 9% CO2. A Spectramax spectrophotometer (Molecular Devices, Sunnyvale, CA, USA) was used to measure the fluorescence of the resulting solutions. The excitation and emission wavelengths were set at […], respectively. The experiment was repeated in technical triplicate, and the data were analyzed using GraphPad Prism (Boston, MA, USA). […] The selectivity index (SI) value of each compound was calculated as the ratio of IC50 of MCF-12A/IC50 of HCC70 or MFC-7 of the same compound, where an SI > 1 implies toxicity that is preferentially toxic to cancer cells compared to non-cancerous cells.
Background: The colour change of resazurin is a common sign of viable cells or microbes.

In the next series the test system is MCF-7. On the set-up: method as in PMID 28619518. The settings on record: 48 h; read-out: activity against MCF-7; cited from earlier work.
The test system of series [2] is 2E1 human liver microsomal. On the set-up: method as in PMID 30122094. The following applies: read-out: inhibition of 2E1; cited from earlier work.
The test system of series [3] is hormone receptor-positive breast cancer cell line (MCF-7). Description: Resazurin cytotoxicity assay, MCF-7. The settings on record: for IC50: Homo sapiens, MCF7; for SI (Selectivity Index), IC50 of MCF-12A/IC50 of MCF-7: MCF-7 versus MCF-12A. It counts as cell-based.
Series [4] has as its system non-tumorigenic breast epithelial cell line (MCF-12A). The experiment in a line: Resazurin cytotoxicity assay, MCF-12A. It counts as cell-based. The following applies: Homo sapiens, MCF-12A cells, 96 h treatment, read-out: IC50 (µM) MCF12A. The method, then:
as §1, §2

For a further series, the system named is CYP3A4. On the set-up: method as in PMID 30122094. The following applies: read-out: inhibition of CYP3A4; cited from earlier work.
A further series deals with insect-derived sf9. On the set-up: method as in PMID 19127726. The following applies: cited from earlier work.
The subject of another series is Lactuca sativa seeds. On the set-up: method as in PMID 19127726. The settings on record: cited from earlier work.
For series [5], the system named is glioblastoma U87MG.EGFR cells, CEM/ADR5000 leukemia cells. On the set-up: method as in earlier work. The following applies: read-out: IC50 cytotoxicity; cited from earlier work.
The subject of the next series is CCRF-CEM cells. On the set-up: method as in earlier work. The settings on record: read-out: IC50 cytotoxicity; cited from earlier work.
The subject of series [6] is HeLa cervical cancer cells. On the set-up: method as in doi:10.15408/jkv.v1i1.20068. The following applies: read-out: IC50 cytotoxicity; cited from earlier work.
Series [7] deals with oral epithelial carcinoma cells (KB/C152). On the set-up: method as in PMID 32334461. The following applies: cited from earlier work.
The subject of series [8] is human ovarian cancer cell line, SKOV3. On the set-up: method as in PMID 32095097. The settings on record: SKOV3 cells; read-out: IC50 cytotoxicity; cited from earlier work.
Series [9] deals with human endometrial carcinoma cell line HEC-1A. On the set-up: method as in PMID 32095097. The settings on record: HEC-1A cells; read-out: IC50 cytotoxicity; cited from earlier work.
Another series relates to Staphylococcus aureus. On the set-up: method as in PMID 19583913. The following applies: cited from earlier work.
The test system of series [10] is Acinetobacter calcaoceuticus. On the set-up: method as in PMID 19583913. The settings on record: cited from earlier work.
The test system of the next series is Staphylococcus typhi. On the set-up: method as in PMID 19583913. The following applies: cited from earlier work.
For a further series, the system named is Kocuria kristinae. On the set-up: method as in PMID 19583913. The settings on record: cited from earlier work.
[11] abbreviates: MCF-7 cells, 96 h treatment, resazurin.

As for `C[C@H]1C(=O)CC[C@@H]2[C@]1(C)CC[C@H]1[C@@]2(C)CC[C@@]2(C)[C@@H]3CC(C)(C)CC[C@]3(C)CC[C@]12C` [Compound 1, friedelan-3-one], the “IC50 (µM) HCC70” value in [1] was “Non-Toxic”. Moreover, the IC50 in the series on MCF-7 is 1.2 µM; in series [2] it was 22.5 µM; in series [4] it was 43.9 µM; in the series with CYP3A4, 10.8 µM. Further, the “IC50 (µM) MCF7” value in series [3] (setting [11]) is given as “Non-Toxic”.

In the case of `C[C@H]1C(O)C(=O)CC2[C@]3(C)CC[C@@]4(C)C5CC(C)(C)CC[C@]5(C)CC[C@]4(C)C3CC[C@@]21C` (stereo partly drawn) [Compound 2, 3α-hydroxyfriedel-2-one], the “cytotoxicity effect on sf9” value with insect-derived sf9 is reported as 8.32 µg/mL. Besides, in series [1], the “IC50 (µM) HCC70” value was “Non-Toxic”. Moreover, the IC50 in [3] (setting [11]) is 157 µM; in series [4] it was 84.2 µM. For the same molecule, in series [3], the “SI (Selectivity Index), IC50 of MCF-12A/IC50 of MCF-7” value (from here on “SI (Selectivity Index) … of MCF-7”) is listed as 0.53. In the series on Lactuca sativa seeds, the phytotoxicity against germination result is given as “no phytotoxicity”.

The molecule `CC1=C(O)C(=O)CC2[C@]3(C)CC[C@@]4(C)C5CC(C)(C)CC[C@]5(C)CC[C@]4(C)C3CC[C@]12C` (some centres unmarked) [Compound 3, 3-hydroxyfriedel-3-en-2-one] showed a melting point of 265 to 268 °C. In addition, in series [1], the “SI (Selectivity Index), IC50 of MCF-12A/IC50 of HCC70” value (from here on “SI (Selectivity Index) … of HCC70”) is on record as 0.93 and the IC50 came to 146 µM. In [3] (setting [11]), the IC50 is 101 µM. Also, the “SI (Selectivity Index) … of MCF-7” value in [3] was 1.35. Further, the IC50 in series [4] is 136 µM.

On to `C=C(C)[C@@H]1CC[C@]2(C)CC[C@]3(C)[C@H](CC[C@@H]4[C@@]5(C)CC[C@H](O)C(C)(C)[C@@H]5CC[C@]43C)[C@@H]12` [Compound 4, lup-20(29)-en-3-ol], for which the IC50 was 13.6 to 69.4 µM in [5], 149 µM in series [3] (setting [11]), 0.02 to 66.8 µM in the series on CCRF-CEM cells and 36.6 µM in series [4]. Besides, the “IC50 (µM) HCC70” value in series [1] is “Non-Toxic”. Besides, the “SI (Selectivity Index) … of MCF-7” value in series [3] is recorded as 0.25.

Consider `CC[C@H](/C=C/[C@@H](C)[C@H]1CC[C@H]2[C@@H]3CC=C4C[C@@H](O)CC[C@]4(C)[C@H]3CC[C@]12C)C(C)C` [Compound 5, Stigmasta-5-22-dien-3-ol], for which the IC50 is 26.4 µM in [6], 109 µM in series [1], 227 µM in series [3] (setting [11]) and 44.1 µM in series [4]. Besides, the “SI (Selectivity Index) … of HCC70” value in series [1] stood at 0.40. Besides, in series [7], the IC50 cytotoxicity is 81.18 µg/mL (≈ 197 µM). The “SI (Selectivity Index) … of MCF-7” value in [3] amounted to 0.19.

Turning to `COc1ccc(C(C)C(=O)c2ccc(OC)cc2O)cc1` (centres unmarked) [Compound 6, 4-O-methylangolensis], the melting point lay within 70 to 71 °C. Moreover, in series [1], the “SI (Selectivity Index) … of HCC70” value amounted to 1.32 and the IC50 worked out at 111 µM. For the same molecule, the IC50 in series [3] (setting [11]) was determined as 77.5 µM. Moreover, the “SI (Selectivity Index) … of MCF-7” value in series [3] worked out at 1.91. The IC50 in [4] amounted to 148 µM.

For `CC(=O)OC1CCC2(C)C(CCC3(C)C2CC=C2C4CC(C)(C)CCC4(C(=O)O)CCC23C)C1(C)C` (stereo not drawn) [Compound 7, (3β)-3-acetoxyolean-12-en-28-oic acid], the “SI (Selectivity Index) … of HCC70” value in series [1] was found to be 0.97. Also, the IC50 in [1] is 147 µM; in series [3] (setting [11]), 83.1 µM; in [4] it was 143 µM; in [8], 8.3 µM; in series [9], 0.8 µM. In addition, the “SI (Selectivity Index) … of MCF-7” value in [3] is listed as 1.72.

Consider `CCCCCCCCCCCCCCOC(=O)/C=C/c1ccc(O)c(OC)c1` [Compound 8, tetradecyl (E)-ferulate], for which the melting point lay in the range of 68 to 70 °C. Moreover, in series [1], the “SI (Selectivity Index) … of HCC70” value worked out at 0.05 and the IC50 came out at 128 µM. Besides, in series [3] (setting [11]), the IC50 was determined as 223 µM. Moreover, the “SI (Selectivity Index) … of MCF-7” value in series [3] stood at 0.03. Further, the IC50 in series [4] was found to be 6.95 µM.

Consider `COc1cc([C@@H]2c3cc4c(cc3[C@@H](O[C@@H]3O[C@@H]5CO[C@@H](C)O[C@H]5[C@H](O)[C@H]3O)[C@H]3COC(=O)[C@H]23)OCO4)cc(OC)c1O` [Etoposide, reference compound], for which the IC50 stood at 44.8 µM in series [1] and 10.9 µM in series [4].

On to epicatechin-3-O-gallate, for which the “minimum inhibition concentration (MIC)” value (in the series on Staphylococcus aureus; in series [10]) was 50 µg/mL each time.

On to hexamer of epicatechin, for which the “minimum inhibition concentration (MIC)” value in the series on Staphylococcus typhi and in the series on Kocuria kristinae was 25 µg/mL in each case.

Usually melting point stands for the temperature, or range, at which the solid turns liquid.
